Measurements reported in PubChem BioAssay (NCI).
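In this assay, cells in 96-well plates receive the compound at five concentrations for 48 hours. Endpoints are linearly interpolated between the surrounding concentrations. Definition used: TGI = concentration required for complete inhibition of growth.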

Test system: IGROV1 ovarian
Test: NCI-60 cell line screen, 48 h

| Compound | TGI |
| --- | --- |
| CCOc1ccc(NC(=O)C(=O)Nn2c(N)nnc2N)cc1 | > 100 µM |
| Cc1[nH]c(-c2ccccc2)c2nc(N(C)C)oc(=O)c12 | > 100 µM |
| CC(C)(C)O/N=C/c1cc(NC(=S)c2ccsc2)ccc1Cl | 34.9 µM |
| Cc1ccc2nc(NS(=O)(=O)c3cc(C)c(Cl)cc3S)[nH]c2c1 | > 100 µM |
| CC(=O)N1C(Nc2nccs2)CCN1c1ccccc1 (stereo not drawn) | > 10 µM |
| COc1cc(OC)c2c(=O)c3cccc(C)c3n(C)c2c1 | > 100 µM |
| O=[N+]([O-])c1cccc2nccc(NCCN3CCOCC3)c12 | 45.1 µM |
| O=C1NC(N/N=C\c2ccccc2)=N/C1=C/c1ccccc1 | > 100 µM |
| CCCCCCCCCCCCOCC1(COCCCCCCCCCCCC)COC(c2ccc(N)cc2)OC1 | > 100 µM |
| C[C@@H]1CC[C@@H]2[C@@H](C1)O[C@@H]([C@@H](C)OCc1ccccc1)SC2(C)C | 63.3 µM |
| Cc1sc2nc3n(c(=O)c2c1C)N=CN(c1ccc(Cl)cc1)C3 | > 100 µM |
| NC(=O)[N+](=CC(=S)Nc1ccccc1Cl)C(N)=O | > 100 µM |

Test system: HOP-62 NSCLC
Test: NCI-60 cell line screen, 48 h

| Compound | TGI |
| --- | --- |
| O=[N+]([O-])c1ccc(-c2nn3c(C45CC6CC(CC(C6)C4)C5)nnc3s2)c(Cl)c1 | > 100 µM |
| CCCCCCCCCCCCCCCCNC(=O)/C(=C\c1ccc(Cl)c(Cl)c1)NC(=O)c1ccccc1 | 51.6 µM |
| CC(Cn1c2c(c3cc(O)ccc31)CCc1ccc(O)cc1-2)N(C)C (stereo not drawn) | 31 µM |
| O=C(Cn1c2ccc(Br)cc2c2nc3ccccc3nc21)Nc1ccccc1 | > 100 µM |
| COC(=O)/C=C/[C@@H]1[C@H](C)N1S(=O)(=O)c1ccc(C)cc1 (stereo partly drawn) | > 100 µM |
| Cc1nn(C(=O)c2ccncc2)c2c1C(c1ccccc1[N+](=O)[O-])SC(N)=N2 (stereo not drawn) | > 10 µM |
| CCOC(=O)C(=CNc1ccc(F)c(F)c1)C(=O)OCC | > 100 µM |
| CN(N=O)c1nc2c(C(N)=O)ncn2s1 | > 100 µM |
| C1CCCN(NC2=NCCO2)CC1 | > 100 µM |
| CCOc1ccc(NC(=O)C(=O)Nn2c(N)nnc2N)cc1 | > 100 µM |
| Cc1[nH]c(-c2ccccc2)c2nc(N(C)C)oc(=O)c12 | > 100 µM |
| CC(C)(C)O/N=C/c1cc(NC(=S)c2ccsc2)ccc1Cl | 29.4 µM |
| Cc1ccc2nc(NS(=O)(=O)c3cc(C)c(Cl)cc3S)[nH]c2c1 | > 100 µM |
| CC(=O)N1C(Nc2nccs2)CCN1c1ccccc1 (stereo not drawn) | > 10 µM |
| COc1cc(OC)c2c(=O)c3cccc(C)c3n(C)c2c1 | > 100 µM |
| O=[N+]([O-])c1cccc2nccc(NCCN3CCOCC3)c12 | 35.6 µM |
| O=C1NC(N/N=C\c2ccccc2)=N/C1=C/c1ccccc1 | 48.2 µM |
| CCCCCCCCCCCCOCC1(COCCCCCCCCCCCC)COC(c2ccc(N)cc2)OC1 | > 100 µM |
| C[C@@H]1CC[C@@H]2[C@@H](C1)O[C@@H]([C@@H](C)OCc1ccccc1)SC2(C)C | 32.3 µM |
| Cc1sc2nc3n(c(=O)c2c1C)N=CN(c1ccc(Cl)cc1)C3 | > 100 µM |
| NC(=O)[N+](=CC(=S)Nc1ccccc1Cl)C(N)=O | > 100 µM |

Test system: OVCAR-5 ovarian
Test: NCI-60 cell line screen, 48 h

| Compound | TGI |
| --- | --- |
| O=[N+]([O-])c1ccc(-c2nn3c(C45CC6CC(CC(C6)C4)C5)nnc3s2)c(Cl)c1 | > 100 µM |
| CCCCCCCCCCCCCCCCNC(=O)/C(=C\c1ccc(Cl)c(Cl)c1)NC(=O)c1ccccc1 | > 100 µM |
| CC(Cn1c2c(c3cc(O)ccc31)CCc1ccc(O)cc1-2)N(C)C (stereo not drawn) | 37.2 µM |
| O=C(Cn1c2ccc(Br)cc2c2nc3ccccc3nc21)Nc1ccccc1 | > 100 µM |
| COC(=O)/C=C/[C@@H]1[C@H](C)N1S(=O)(=O)c1ccc(C)cc1 (stereo partly drawn) | > 100 µM |
| Cc1nn(C(=O)c2ccncc2)c2c1C(c1ccccc1[N+](=O)[O-])SC(N)=N2 (stereo not drawn) | > 10 µM |
| CCOC(=O)C(=CNc1ccc(F)c(F)c1)C(=O)OCC | > 100 µM |
| CN(N=O)c1nc2c(C(N)=O)ncn2s1 | > 100 µM |
| C1CCCN(NC2=NCCO2)CC1 | > 100 µM |
| CCOc1ccc(NC(=O)C(=O)Nn2c(N)nnc2N)cc1 | > 100 µM |
| Cc1[nH]c(-c2ccccc2)c2nc(N(C)C)oc(=O)c12 | > 100 µM |
| CC(C)(C)O/N=C/c1cc(NC(=S)c2ccsc2)ccc1Cl | 32.9 µM |
| Cc1ccc2nc(NS(=O)(=O)c3cc(C)c(Cl)cc3S)[nH]c2c1 | > 100 µM |
| CC(=O)N1C(Nc2nccs2)CCN1c1ccccc1 (stereo not drawn) | > 10 µM |
| COc1cc(OC)c2c(=O)c3cccc(C)c3n(C)c2c1 | > 100 µM |
| O=[N+]([O-])c1cccc2nccc(NCCN3CCOCC3)c12 | 38.4 µM |
| O=C1NC(N/N=C\c2ccccc2)=N/C1=C/c1ccccc1 | 44.5 µM |
| CCCCCCCCCCCCOCC1(COCCCCCCCCCCCC)COC(c2ccc(N)cc2)OC1 | > 100 µM |
| C[C@@H]1CC[C@@H]2[C@@H](C1)O[C@@H]([C@@H](C)OCc1ccccc1)SC2(C)C | 32.9 µM |
| Cc1sc2nc3n(c(=O)c2c1C)N=CN(c1ccc(Cl)cc1)C3 | > 100 µM |
| NC(=O)[N+](=CC(=S)Nc1ccccc1Cl)C(N)=O | > 100 µM |

Test system: UACC-62 melanoma
Test: NCI-60 cell line screen, 48 h

| Compound | TGI |
| --- | --- |
| O=[N+]([O-])c1ccc(-c2nn3c(C45CC6CC(CC(C6)C4)C5)nnc3s2)c(Cl)c1 | > 100 µM |
| CC(Cn1c2c(c3cc(O)ccc31)CCc1ccc(O)cc1-2)N(C)C (stereo not drawn) | 35.9 µM |
| O=C(Cn1c2ccc(Br)cc2c2nc3ccccc3nc21)Nc1ccccc1 | > 100 µM |
| COC(=O)/C=C/[C@@H]1[C@H](C)N1S(=O)(=O)c1ccc(C)cc1 (stereo partly drawn) | > 100 µM |
| Cc1nn(C(=O)c2ccncc2)c2c1C(c1ccccc1[N+](=O)[O-])SC(N)=N2 (stereo not drawn) | > 10 µM |
| CN(N=O)c1nc2c(C(N)=O)ncn2s1 | > 100 µM |
| C1CCCN(NC2=NCCO2)CC1 | > 100 µM |
| CCOc1ccc(NC(=O)C(=O)Nn2c(N)nnc2N)cc1 | > 100 µM |
| Cc1[nH]c(-c2ccccc2)c2nc(N(C)C)oc(=O)c12 | > 100 µM |
| CC(C)(C)O/N=C/c1cc(NC(=S)c2ccsc2)ccc1Cl | 28.8 µM |
| Cc1ccc2nc(NS(=O)(=O)c3cc(C)c(Cl)cc3S)[nH]c2c1 | > 100 µM |
| COc1cc(OC)c2c(=O)c3cccc(C)c3n(C)c2c1 | > 100 µM |
| CCCCCCCCCCCCOCC1(COCCCCCCCCCCCC)COC(c2ccc(N)cc2)OC1 | > 100 µM |
| C[C@@H]1CC[C@@H]2[C@@H](C1)O[C@@H]([C@@H](C)OCc1ccccc1)SC2(C)C | 43.2 µM |
| Cc1sc2nc3n(c(=O)c2c1C)N=CN(c1ccc(Cl)cc1)C3 | > 100 µM |
| NC(=O)[N+](=CC(=S)Nc1ccccc1Cl)C(N)=O | > 100 µM |

Test system: MDA-MB-231 breast
Test: NCI-60 cell line screen, 48 h

| Compound | TGI |
| --- | --- |
| O=[N+]([O-])c1ccc(-c2nn3c(C45CC6CC(CC(C6)C4)C5)nnc3s2)c(Cl)c1 | > 100 µM |
| CCCCCCCCCCCCCCCCNC(=O)/C(=C\c1ccc(Cl)c(Cl)c1)NC(=O)c1ccccc1 | 40.3 µM |
| CC(Cn1c2c(c3cc(O)ccc31)CCc1ccc(O)cc1-2)N(C)C (stereo not drawn) | 59.4 µM |
| O=C(Cn1c2ccc(Br)cc2c2nc3ccccc3nc21)Nc1ccccc1 | 34.2 µM |
| COC(=O)/C=C/[C@@H]1[C@H](C)N1S(=O)(=O)c1ccc(C)cc1 (stereo partly drawn) | > 100 µM |
| Cc1nn(C(=O)c2ccncc2)c2c1C(c1ccccc1[N+](=O)[O-])SC(N)=N2 (stereo not drawn) | > 10 µM |
| CCOC(=O)C(=CNc1ccc(F)c(F)c1)C(=O)OCC | > 100 µM |
| CN(N=O)c1nc2c(C(N)=O)ncn2s1 | > 100 µM |
| C1CCCN(NC2=NCCO2)CC1 | > 100 µM |
| CCOc1ccc(NC(=O)C(=O)Nn2c(N)nnc2N)cc1 | > 100 µM |
| Cc1[nH]c(-c2ccccc2)c2nc(N(C)C)oc(=O)c12 | > 100 µM |
| CC(C)(C)O/N=C/c1cc(NC(=S)c2ccsc2)ccc1Cl | 32.1 µM |
| Cc1ccc2nc(NS(=O)(=O)c3cc(C)c(Cl)cc3S)[nH]c2c1 | > 100 µM |
| CC(=O)N1C(Nc2nccs2)CCN1c1ccccc1 (stereo not drawn) | > 10 µM |
| COc1cc(OC)c2c(=O)c3cccc(C)c3n(C)c2c1 | > 100 µM |
| O=[N+]([O-])c1cccc2nccc(NCCN3CCOCC3)c12 | 71.1 µM |
| O=C1NC(N/N=C\c2ccccc2)=N/C1=C/c1ccccc1 | > 100 µM |
| CCCCCCCCCCCCOCC1(COCCCCCCCCCCCC)COC(c2ccc(N)cc2)OC1 | > 100 µM |
| C[C@@H]1CC[C@@H]2[C@@H](C1)O[C@@H]([C@@H](C)OCc1ccccc1)SC2(C)C | 38.2 µM |
| Cc1sc2nc3n(c(=O)c2c1C)N=CN(c1ccc(Cl)cc1)C3 | > 100 µM |
| NC(=O)[N+](=CC(=S)Nc1ccccc1Cl)C(N)=O | > 100 µM |

Test system: SK-OV-3 ovarian
Test: NCI-60 cell line screen, 48 h

| Compound | TGI |
| --- | --- |
| O=[N+]([O-])c1ccc(-c2nn3c(C45CC6CC(CC(C6)C4)C5)nnc3s2)c(Cl)c1 | > 100 µM |
| CCCCCCCCCCCCCCCCNC(=O)/C(=C\c1ccc(Cl)c(Cl)c1)NC(=O)c1ccccc1 | > 100 µM |
